{"source": "patent US9222949B2", "about": "“Salvinorin immunoassay” (priority 2009, dated 2015)", "key": {"[1]": {"tested_on": "antisera generated to Immunogen I (hapten A-BTG)", "test": "competitive microtiter plate assay (ELISA) for salvinorin A and salvinorin B", "format": "binding, sheep"}, "[2]": {"conditions": "in vivo; cited from earlier work"}, "[3]": {"conditions": "Conjugate I, calibrator 0.16 ng/ml"}, "[4]": {"conditions": "Conjugate I, calibrator 0.31 ng/ml"}, "[5]": {"conditions": "Conjugate I, calibrator 0.63 ng/ml"}, "[6]": {"conditions": "Conjugate I, calibrator 1.25 ng/ml"}, "[7]": {"conditions": "Conjugate I, calibrator 2.50 ng/ml"}, "[8]": {"conditions": "Conjugate I, calibrator 5.00 ng/ml"}, "[9]": {"conditions": "Conjugate I, calibrator 10.00 ng/ml"}, "[10]": {"conditions": "Conjugate II, calibrator 0.16 ng/ml"}, "[11]": {"conditions": "Conjugate II, calibrator 0.31 ng/ml"}, "[12]": {"conditions": "Conjugate II, calibrator 0.63 ng/ml"}, "[13]": {"conditions": "Conjugate II, calibrator 1.25 ng/ml"}, "[14]": {"conditions": "Conjugate II, calibrator 2.50 ng/ml"}, "[15]": {"conditions": "Conjugate II, calibrator 5.00 ng/ml"}, "[16]": {"conditions": "Conjugate II, calibrator 10.00 ng/ml"}}}
{"smiles": "COC(=O)[C@@H]1C[C@H](OC(C)=O)C(=O)[C@H]2[C@@]1(C)CC[C@H]1C(=O)O[C@H](c3ccoc3)C[C@]21C", "note": "[Salvinorin A]", "values": [{"measurement": "% CR (percentage cross-reactivity based on 100% specificity to salvinorin A)", "setting": "[1]; Conjugate I", "result": 100, "unit": "%"}, {"measurement": "IC50 (standard concentration which produces 50% B/Bo)", "setting": "[1]; Conjugate I", "result": 0.277, "unit": "ng/mL"}, {"measurement": "% B/B0", "setting": "[1]; [3]", "result": 62, "unit": "%"}, {"measurement": "% B/B0", "setting": "[1]; [4]", "result": 48, "unit": "%"}, {"measurement": "% B/B0", "setting": "[1]; [5]", "result": 36, "unit": "%"}, {"measurement": "% B/B0", "setting": "[1]; [6]", "result": 26, "unit": "%"}, {"measurement": "% B/B0", "setting": "[1]; [7]", "result": 18, "unit": "%"}, {"measurement": "% B/B0", "setting": "[1]; [8]", "result": 13, "unit": "%"}, {"measurement": "% B/B0", "setting": "[1]; [9]", "result": 9, "unit": "%"}, {"measurement": "% CR (percentage cross-reactivity based on 100% specificity to salvinorin A)", "setting": "[1]; Conjugate II", "result": 100, "unit": "%"}, {"measurement": "IC50 (standard concentration which produces 50% B/Bo)", "setting": "[1]; Conjugate II", "result": 0.331, "unit": "ng/mL"}, {"measurement": "% B/B0", "setting": "[1]; [10]", "result": 64, "unit": "%"}, {"measurement": "% B/B0", "setting": "[1]; [11]", "result": 51, "unit": "%"}, {"measurement": "% B/B0", "setting": "[1]; [12]", "result": 39, "unit": "%"}, {"measurement": "% B/B0", "setting": "[1]; [13]", "result": 30, "unit": "%"}, {"measurement": "% B/B0", "setting": "[1]; [14]", "result": 20, "unit": "%"}, {"measurement": "% B/B0", "setting": "[1]; [15]", "result": 14, "unit": "%"}, {"measurement": "% B/B0", "setting": "[1]; [16]", "result": 9, "unit": "%"}, {"measurement": "action of duration", "setting": "[2]", "result": "10 to 15", "unit": "min"}]}
{"smiles": "COC(=O)C1CC(O)C(=O)C2C1(C)CCC1C(=O)OC(c3ccoc3)CC12C", "note": "(stereo not shown) [Salvinorin B]", "values": [{"measurement": "% CR (percentage cross-reactivity based on 100% specificity to salvinorin A)", "setting": "[1]; Conjugate I", "result": 9.52, "unit": "%"}, {"measurement": "IC50 (standard concentration which produces 50% B/Bo)", "setting": "[1]; Conjugate I", "result": 2.909, "unit": "ng/mL"}, {"measurement": "% B/B0", "setting": "[1]; [3]", "result": 84, "unit": "%"}, {"measurement": "% B/B0", "setting": "[1]; [4]", "result": 74, "unit": "%"}, {"measurement": "% B/B0", "setting": "[1]; [5]", "result": 70, "unit": "%"}, {"measurement": "% B/B0", "setting": "[1]; [6]", "result": 63, "unit": "%"}, {"measurement": "% B/B0", "setting": "[1]; [7]", "result": 50, "unit": "%"}, {"measurement": "% B/B0", "setting": "[1]; [8]", "result": 43, "unit": "%"}, {"measurement": "% B/B0", "setting": "[1]; [9]", "result": 33, "unit": "%"}, {"measurement": "% CR (percentage cross-reactivity based on 100% specificity to salvinorin A)", "setting": "[1]; Conjugate II", "result": 12.00, "unit": "%"}, {"measurement": "IC50 (standard concentration which produces 50% B/Bo)", "setting": "[1]; Conjugate II", "result": 2.758, "unit": "ng/mL"}, {"measurement": "% B/B0", "setting": "[1]; [10]", "result": 85, "unit": "%"}, {"measurement": "% B/B0", "setting": "[1]; [11]", "result": 78, "unit": "%"}, {"measurement": "% B/B0", "setting": "[1]; [12]", "result": 71, "unit": "%"}, {"measurement": "% B/B0", "setting": "[1]; [13]", "result": 61, "unit": "%"}, {"measurement": "% B/B0", "setting": "[1]; [14]", "result": 51, "unit": "%"}, {"measurement": "% B/B0", "setting": "[1]; [15]", "result": 43, "unit": "%"}, {"measurement": "% B/B0", "setting": "[1]; [16]", "result": 33, "unit": "%"}]}
